One data set concerns the target UnaG protein (UniProtKB/Swiss-Prot: P0DM59.1, GenBank: AB763906.1). Conditions: binding ability to indirect bilirubin; Kumagai et al., Cell 2013, 153, 1602-1611; read-out: dissociation constant; cited from earlier work.
A short description of data set [1]: Room-temperature storage of lyophilized samples, bilirubin affinity re-measured. Format: physicochemical. Conditions: lyophilized sample stored at room temperature; FIG. 5. On the procedure: 500 μL of the purified UnaG (CΔ0)-NLuc (NΔ1) fusion protein was added to a 15-mL Falcon tube and frozen with liquid nitrogen. Thereafter, a powder of the protein solution was obtained by a lyophilizer. The powder was stored at room temperature.
After the preparation of the lyophilized samples, in order to investigate how long the activity is maintained, the lyophilized samples that had been […] were stored at room temperature every few days, and the affinity for bilirubin was measured according to the method described in the above item 7.

These results are taken from US11619628B2, “Device and determination system using same” (Osaka University, priority 2017, dated 2023).

For `C=CC1=C(C)/C(=C/c2[nH]c(Cc3[nH]c(/C=C4\NC(=O)C(C)=C4C=C)c(C)c3CCC(=O)O)c(CCC(=O)O)c2C)NC1=O` [bilirubin], the Kd at UnaG protein is 0.098 nM.

B1: UnaG (CΔ0)-NLuc (NΔ1) fusion protein: Fusion of UnaG (CΔ0) and NLuc (NΔ1) at the KpnI site, linker GT; amino acid sequence SEQ ID NO: 12 (protein)
chain: GGSGMVEKFVGTWKIADSHNFGEYLKAIGAPKELSDGGDATTPTLYISQKDGDKMTVKIENGPPTFLDTQVKFKLGEEFDEFPSDRRKGVKSVVNLVGEKYVQKWDGKETTYVREIKDGKLVVTLTMGDVVAVRSYRRATEGTVFTLEDFVGDWRQTAGYNLDQVLEQGGVSSLFQNLGVSVTPIQRIVLSGENGLKIDIHVIIPYEGLSGDQMGQIEKIFKVVYPVDDHHFKVILHYGTLVIDGVTPNMIDYFGRPYEGIAVFDGKKITVTGTLWNGNKIIDERLINPDGSLLFRVTINGVTGWRLCERILA
modifications: UnaG(C 0)-NLuc(N 1)
Consider B1, for which the “activity (affinity for bilirubin) after storage” value in data set [1] is “activity was maintained”.
